We go through four molecules from article PMC7143549, “Anticancer Activities of Meroterpenoids Isolated from the Brown Alga Cystoseira usneoides against the Human Colon Cancer Cells HT-29” (Foods, 2020).

Each structure is given as a SMILES string.

This assay deals with p-ERK1/2 in HT-29 cells. The assay can be described thus: Western blot of phosphorylated ERK1/2. Format: cell-based, human. As to conditions: 24 h; 10 and 20 μg/mL. As for the experimental part: Cells were cultured to 80% confluence at 37 °C. After 24 h of treatment with the compounds (10 and 20 µg/mL for compounds 1, 2, 5, 6, 7, and 8, and 30 and 60 µg/mL for compounds 3 and 4), HT-29 cells were rinsed twice with ice-cold PBS, and then lysed immediately in lysis buffer (250 mM NaCl, 50 mM Tris (pH 7.5), 0.5 mM EDTA, 5 mM EGTA, 8 mM MgCl2, 1 mM PMSF, 0.01 mg/mL pepstatin A, 0.01 mg/mL leupeptin, 0.01 mg/mL aprotinin, 1% Triton X-100). After centrifugation at 12,000 g for 3 min at 4°C to separate the cellular debris, the supernatant was collected and stored at −80°C until use. The protein concentrations were determined using Bio-Rad Protein Assay (BioRad, Richmond, CA, USA), according to the manufacturer’s instructions.
Equal protein content (50 μg) samples of cell lysates were separated on 10% SDS–polyacrylamide gel and transferred to polyvinylidene difluoride membranes (Hybond-P, Amershan Biosciences, Little Chalfont, UK). The membranes were blocked with 5% (w/v) non-fat dry milk in Tris-buffered saline containing 0.1% Tween-20 buffer (pH 7.4) (TBST) for 1 h at room temperature and incubated with agitation with specific antibodies: anti-pERK1/2 (Cell Signaling; 1:1000), anti-pJNK (Cell Signaling; 1:1000), anti-pAKT (Cell Signaling; 1:1000), anti-β-actin (Sigma-Aldrich; 1:500). Membranes were incubated overnight at 4°C with gentle shaking. The secondary antibody was a peroxidase-conjugated goat anti-mouse or -rabbit antibody (1:10,000; DakoCytomation, Carpinteria, CA, USA). After washing the membrane three times in TBST buffer (10 min), the signals were detected using an enhanced chemiluminescence light-detecting kit (Super-Signal West Pico Chemiluminescent Substrate, Pierce, IL, USA), according to the manufacturer’s instructions and exposed to an X-ray film (GE Healthcare Ltd., Amersham, UK). The protein band densities were analyzed and quantified with a Scientific Imaging Systems (Biophotonics ImageJ Analysis Software, National Institute of Mental Health, Bethesda, MD, USA). β-actin was used to confirm the equal loading and transfer of proteins.
On the technique in general: A western blot detects proteins with antibodies after separation by electrophoresis.

As for `COc1c(C)cc(O)cc1C/C=C(\C)CC(=O)/C=C(\C)CCCC(C)(O)C(=O)/C=C/C(C)(C)O` (stereo not shown) [Compound 2, 11-hydroxy-1′-O-methylamentadione], the “p-ERK1/2 level vs control” value is given as “significantly reduced”.
For the molecule `COc1c(C)cc(O)cc1/C=C/C(C)(O)CC(=O)/C=C(/C)CCCC(C)C(=O)/C=C/C(C)(C)O` (stereo not shown) [Compound 7, cystodione A], the “p-ERK1/2 level vs control” value was “significantly reduced”.
Next, `COc1c(C)cc(O)cc1C/C=C(\C)CC(=O)/C=C(/C)CCCC(C)(O)C(=O)/C=C/C(C)(C)O` (stereo not shown) [Compound 1, usneoidone Z]: “significantly reduced”.
Next, `COc1c(C)cc(O)cc1/C=C/C(C)(O)CC(=O)/C=C(\C)CCCC(C)C(=O)/C=C/C(C)(C)O` (stereo not shown) [Compound 8, cystodione B]: “significantly reduced”.
